Assays:
Test in all cases: Bacterial panel testing, MIC by broth microdilution
Type in all cases: cell-based
Conditions in all cases: 20-24 hours growth
[1] = test system: Enterococcus faecium
How it was run: (§1)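 Twofold broth microdilution: compound, prepared at 10 μg/ml in DMSO, serially diluted left to right in inoculated Mueller-Hinton or Brain Heart infusion media. Inoculum from 2-4 h cultures at 37° C, standardized to McFarland density. Plates sealed and grown 20-24 h, then clear wells scored.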

[2] = test system: Bacillus atrophaeus
How it was run: as §1

[3] = test system: Pseudomonas aeruginosa
How it was run: as §1

[4] = test system: Staphylococcus aureus
How it was run: as §1

[5] = test system: Eschericia coli
How it was run: as §1

[6] = test system: Salmonella choleraesuis
How it was run: as §1

OCC1OC(OCc2cn(CC3OC4OC5C(Cn6cc(COC7OC(CO)C(O)C(O)C7O)nn6)OC(OC6C(Cn7cc(COC8OC(CO)C(O)C(O)C8O)nn7)OC(OC7C(Cn8cc(COC9OC(CO)C(O)C(O)C9O)nn8)OC(OC8C(Cn9cc(COC%10OC(CO)C(O)C(O)C%10O)nn9)OC(OC9C(Cn%10cc(COC%11OC(CO)C(O)C(O)C%11O)nn%10)OC(OC%10C(Cn%11cc(COC%12OC(CO)C(O)C(O)C%12O)nn%11)OC(OC3C(O)C4O)C(O)C%10O)C(O)C9O)C(O)C8O)C(O)C7O)C(O)C6O)C(O)C5O)nn2)C(O)C(O)C1O (stereo not drawn)
>200 mg/L: MIC EF [1] | MIC BA [2] | MIC PA [3] | MIC SA [4] | MIC EC [5] | MIC SC [6]

Cl.Cl.Cl.Cl.Cl.Cl.Cl.O=C(CN1CCOCC1)NCC1OC2OC3C(CNC(=O)CN4CCOCC4)OC(OC4C(CNC(=O)CN5CCOCC5)OC(OC5C(CNC(=O)CN6CCOCC6)OC(OC6C(CNC(=O)CN7CCOCC7)OC(OC7C(CNC(=O)CN8CCOCC8)OC(OC8C(CNC(=O)CN9CCOCC9)OC(OC1C(O)C2O)C(O)C8O)C(O)C7O)C(O)C6O)C(O)C5O)C(O)C4O)C(O)C3O (stereo not drawn)
>200 mg/L: MIC EF [1] | MIC BA [2] | MIC PA [3] | MIC SA [4] | MIC EC [5] | MIC SC [6]

CC(C)(C)OC(=O)NCCCC[C@H](N)C(=O)NCC1OC2OC3C(CNC(=O)[C@@H](N)CCCCNC(=O)OC(C)(C)C)OC(OC4C(CNC(=O)[C@@H](N)CCCCNC(=O)OC(C)(C)C)OC(OC5C(CNC(=O)[C@@H](N)CCCCNC(=O)OC(C)(C)C)OC(OC6C(CNC(=O)[C@@H](N)CCCCNC(=O)OC(C)(C)C)OC(OC7C(CNC(=O)[C@@H](N)CCCCNC(=O)OC(C)(C)C)OC(OC8C(CNC(=O)[C@@H](N)CCCCNC(=O)OC(C)(C)C)OC(OC1C(O)C2O)C(O)C8O)C(O)C7O)C(O)C6O)C(O)C5O)C(O)C4O)C(O)C3O (stereo partly drawn)
>200 mg/L: MIC EF [1] | MIC BA [2] | MIC PA [3] | MIC SA [4] | MIC EC [5] | MIC SC [6]

Cl.Cl.Cl.Cl.Cl.Cl.Cl.Cl.Cl.Cl.Cl.Cl.Cl.Cl.Cl.Cl.Cl.Cl.Cl.Cl.Cl.NCCCCC(N)C(=O)NC(CCCCN)C(=O)NCC1OC2OC3C(CNC(=O)C(CCCCN)NC(=O)C(N)CCCCN)OC(OC4C(CNC(=O)C(CCCCN)NC(=O)C(N)CCCCN)OC(OC5C(CNC(=O)C(CCCCN)NC(=O)C(N)CCCCN)OC(OC6C(CNC(=O)C(CCCCN)NC(=O)C(N)CCCCN)OC(OC7C(CNC(=O)C(CCCCN)NC(=O)C(N)CCCCN)OC(OC8C(CNC(=O)C(CCCCN)NC(=O)C(N)CCCCN)OC(OC1C(O)C2O)C(O)C8O)C(O)C7O)C(O)C6O)C(O)C5O)C(O)C4O)C(O)C3O (stereo not drawn)
>200 mg/L: MIC EF [1] | MIC BA [2] | MIC PA [3] | MIC SA [4] | MIC EC [5] | MIC SC [6]

Cl.Cl.Cl.Cl.Cl.Cl.Cl.O=C(NCC1OC2OC3C(CNC(=O)C4CC(O)CN4)OC(OC4C(CNC(=O)C5CC(O)CN5)OC(OC5C(CNC(=O)C6CC(O)CN6)OC(OC6C(CNC(=O)C7CC(O)CN7)OC(OC7C(CNC(=O)C8CC(O)CN8)OC(OC8C(CNC(=O)C9CC(O)CN9)OC(OC1C(O)C2O)C(O)C8O)C(O)C7O)C(O)C6O)C(O)C5O)C(O)C4O)C(O)C3O)C1CC(O)CN1 (stereo not drawn)
>200 mg/L: MIC EF [1] | MIC BA [2] | MIC PA [3] | MIC SA [4] | MIC EC [5] | MIC SC [6]

O[C@@H]1[C@@H](O)[C@H]2O[C@H]3[C@H](O)[C@@H](O)[C@@H](O[C@H]4[C@H](O)[C@@H](O)[C@@H](O[C@H]5[C@H](O)[C@@H](O)[C@@H](O[C@H]6[C@H](O)[C@@H](O)[C@@H](O[C@H]7[C@H](O)[C@@H](O)[C@@H](O[C@H]8[C@H](O)[C@@H](O)[C@@H](O[C@@H]1[C@@H](Cn1ccnc1)O2)O[C@@H]8Cn1ccnc1)O[C@@H]7Cn1ccnc1)O[C@@H]6Cn1ccnc1)O[C@@H]5Cn1ccnc1)O[C@@H]4Cn1ccnc1)O[C@@H]3Cn1ccnc1
>200 mg/L: MIC EF [1] | MIC BA [2] | MIC PA [3] | MIC SA [4] | MIC EC [5] | MIC SC [6]

OCCCNC[C@H]1O[C@@H]2O[C@H]3[C@H](O)[C@@H](O)[C@@H](O[C@H]4[C@H](O)[C@@H](O)[C@@H](O[C@H]5[C@H](O)[C@@H](O)[C@@H](O[C@H]6[C@H](O)[C@@H](O)[C@@H](O[C@H]7[C@H](O)[C@@H](O)[C@@H](O[C@H]8[C@H](O)[C@@H](O)[C@@H](O[C@H]1[C@H](O)[C@H]2O)O[C@@H]8CNCCCO)O[C@@H]7CNCCCO)O[C@@H]6CNCCCO)O[C@@H]5CNCCCO)O[C@@H]4CNCCCO)O[C@@H]3CNCCCO
>200 mg/L: MIC EF [1] | MIC BA [2] | MIC PA [3] | MIC SA [4] | MIC EC [5] | MIC SC [6]

CN(C)CCNC[C@H]1O[C@@H]2O[C@H]3[C@H](O)[C@@H](O)[C@@H](O[C@H]4[C@H](O)[C@@H](O)[C@@H](O[C@H]5[C@H](O)[C@@H](O)[C@@H](O[C@H]6[C@H](O)[C@@H](O)[C@@H](O[C@H]7[C@H](O)[C@@H](O)[C@@H](O[C@H]8[C@H](O)[C@@H](O)[C@@H](O[C@H]1[C@H](O)[C@H]2O)O[C@@H]8CNCCN(C)C)O[C@@H]7CNCCN(C)C)O[C@@H]6CNCCN(C)C)O[C@@H]5CNCCN(C)C)O[C@@H]4CNCCN(C)C)O[C@@H]3CNCCN(C)C
>200 mg/L: MIC EF [1] | MIC BA [2] | MIC PA [3] | MIC SA [4] | MIC EC [5] | MIC SC [6]

O[C@@H]1[C@@H](O)[C@H]2O[C@H]3[C@H](O)[C@@H](O)[C@@H](O[C@H]4[C@H](O)[C@@H](O)[C@@H](O[C@H]5[C@H](O)[C@@H](O)[C@@H](O[C@H]6[C@H](O)[C@@H](O)[C@@H](O[C@H]7[C@H](O)[C@@H](O)[C@@H](O[C@H]8[C@H](O)[C@@H](O)[C@@H](O[C@@H]1[C@@H](CN1CCOCC1)O2)O[C@@H]8CN1CCOCC1)O[C@@H]7CN1CCOCC1)O[C@@H]6CN1CCOCC1)O[C@@H]5CN1CCOCC1)O[C@@H]4CN1CCOCC1)O[C@@H]3CN1CCOCC1
>200 mg/L: MIC EF [1] | MIC BA [2] | MIC PA [3] | MIC SA [4] | MIC EC [5] | MIC SC [6]

Oc1ccc(NC[C@H]2O[C@@H]3O[C@H]4[C@H](O)[C@@H](O)[C@@H](O[C@H]5[C@H](O)[C@@H](O)[C@@H](O[C@H]6[C@H](O)[C@@H](O)[C@@H](O[C@H]7[C@H](O)[C@@H](O)[C@@H](O[C@H]8[C@H](O)[C@@H](O)[C@@H](O[C@H]9[C@H](O)[C@@H](O)[C@@H](O[C@H]2[C@H](O)[C@H]3O)O[C@@H]9CNc2ccc(O)cc2)O[C@@H]8CNc2ccc(O)cc2)O[C@@H]7CNc2ccc(O)cc2)O[C@@H]6CNc2ccc(O)cc2)O[C@@H]5CNc2ccc(O)cc2)O[C@@H]4CNc2ccc(O)cc2)cc1
>200 mg/L: MIC EF [1] | MIC BA [2] | MIC PA [3] | MIC SA [4] | MIC EC [5] | MIC SC [6]

Cc1c(NC[C@H]2O[C@@H]3O[C@H]4[C@H](O)[C@@H](O)[C@@H](O[C@H]5[C@H](O)[C@@H](O)[C@@H](O[C@H]6[C@H](O)[C@@H](O)[C@@H](O[C@H]7[C@H](O)[C@@H](O)[C@@H](O[C@H]8[C@H](O)[C@@H](O)[C@@H](O[C@H]9[C@H](O)[C@@H](O)[C@@H](O[C@H]2[C@H](O)[C@H]3O)O[C@@H]9CNc2c(C)n(C)n(-c3ccccc3)c2=O)O[C@@H]8CNc2c(C)n(C)n(-c3ccccc3)c2=O)O[C@@H]7CNc2c(C)n(C)n(-c3ccccc3)c2=O)O[C@@H]6CNc2c(C)n(C)n(-c3ccccc3)c2=O)O[C@@H]5CNc2c(C)n(C)n(-c3ccccc3)c2=O)O[C@@H]4CNc2c(C)n(C)n(-c3ccccc3)c2=O)c(=O)n(-c2ccccc2)n1C
>200 mg/L: MIC EF [1] | MIC BA [2] | MIC PA [3] | MIC SA [4] | MIC EC [5] | MIC SC [6]

O=C(C1CCCO1)N1CCN(CC2OC3OC4C(CN5CCN(C(=O)C6CCCO6)CC5)OC(OC5C(CN6CCN(C(=O)C7CCCO7)CC6)OC(OC6C(CN7CCN(C(=O)C8CCCO8)CC7)OC(OC7C(CN8CCN(C(=O)C9CCCO9)CC8)OC(OC8C(CN9CCN(C(=O)C%10CCCO%10)CC9)OC(OC9C(CN%10CCN(C(=O)C%11CCCO%11)CC%10)OC(OC2C(O)C3O)C(O)C9O)C(O)C8O)C(O)C7O)C(O)C6O)C(O)C5O)C(O)C4O)CC1 (stereo not drawn)
>200 mg/L: MIC EF [1] | MIC BA [2] | MIC PA [3] | MIC SA [4] | MIC EC [5] | MIC SC [6]
